Values joined by “and” are separate entries in the source; they are usually repeats but may differ in a detail not shown here. Equal values may be shown once.
Experiments:
[1] = cited from earlier work
[2] = cited from earlier work; remark: listed apart in the source
[3] = test system: previously treated B-cell malignancies (CLL/SLL, WM, MCL, MZL); test: Phase 2 (NCT04116437): investigator-assessed efficacy (ORR, DCR, DOR, PFS, OS); type: in vivo, human; conditions: for Months to BOR, median: patients who responded
Procedure: PFS and patient-reported outcomes were assessed as secondary efficacy endpoints.
The study's secondary endpoints were: • ORR, defined as the proportion of patients achieving a best overall response (BOR) of CR, CRi, nodular partial response, partial response (PR), or partial response with lymphocytosis (PR-L) in patients with CLL; CR or PR in patients with SLL, MCL, or MZL; and CR, very good partial response, PR, or minor response (MR) in patients with WM before initiation of subsequent antineoplastic therapy. • DCR, defined as the proportion of patients who attain a BOR of stable disease or better before initiation of subsequent antineoplastic therapy. • Duration of response (DOR), defined as time from […] to date of first documented disease progression or death, whichever occurs first. • PFS, defined as time from first dose date to date of first documented disease progression or death, whichever occurs first. • Time to first response, defined as time from first dose to date of first qualifying response. For example, for a patient who attained a PR-L followed by PR for subsequent assessments, time to first response was the time from first dose to date of first PR-L. • Time to BOR, defined as time from first dose to date of best of overall response.
A patient's BOR was the best response recorded throughout the study prior to initiation of any new anticancer therapy and data cutoff. In some cases, the BOR could only be stable disease (e.g., if the patient was in CR at study entry) because patients were not required to progress prior to entering the study. • ORR was the proportion of patients who attained a BOR of: • PR-L or better (CR, CRi, nodular partial response, PR, PR-L) in patients with CLL; • PR or better (CR, PR) in patients with SLL, MCL, and MZL; • MR or better (CR, very good partial response, PR, MR) in patients with WM.
Per the Safety Analysis Set, patients without postbaseline disease assessment were considered non-responders. DCR was summarized with 95% exact confidence intervals. A sensitivity analysis of DCR was conducted in patients in the Efficacy Evaluable Set; patients who died or discontinued study prior to their first disease assessment due to adverse events were classified as not achieving disease control. An additional sensitivity analysis of DCR excluded patients with low disease burden, as defined above.
The PFS distribution and its related metrics such as median PFS and landmark rates were estimated using the Kaplan-Meier method with censoring rules as defined in Table 29.
Zanubrutinib capsules were taken orally with water and with or without food. Imaging and laboratory assessments at study entry were considered baseline for response assessment; patients were not required to meet criteria for initiation of treatment at study entry.

[4] = coadministration with itraconazole
[5] = Cohort 1 (prior ibrutinib), n = 57
[6] = Cohort 2 (prior acalabrutinib + ibrutinib), n = 7
[7] = Efficacy Evaluable Set, 68 patients

## C=CC(=O)N1CCC([C@@H]2CCNc3c(C(N)=O)c(-c4ccc(Oc5ccccc5)cc4)nn32)CC1 [zanubrutinib, (S)-7-(1-acryloylpiperidin-4-yl)-2-(4-phenoxyphenyl)-4,5,6,7-tetrahydropyrazolo[1,5-a]pyrimidine-3-carboxamide]
[1]; [4]
  Increase in zanubrutinib AUC0-∞: 3.8 fold
  Increase in zanubrutinib Cmax: 2.6 fold
[1]; coadministration with rifampin
  Decrease in zanubrutinib AUC0-∞: 13.5 fold
  Decrease in zanubrutinib Cmax: 12.6 fold
  Exposure change: 13 fold
[2]; oral administration
  Median Tmax: 2 h
[2]; patients with B-cell malignancies
  Mean terminal elimination half-life (t1/2): 2 to 4 h
[2]; previous clinical DDI study in healthy volunteers
  Mean t1/2: 6.8 h
[3]; 160 mg bid group
  DCR: 95.0%
  ORR: 70.0%
[3]; 320 mg qd group
  DCR: 91.7%
  ORR: 54.2%
[3]; Cohort 1
  BOR PD: 1 (1.8) n (%)
  BOR PR-L or better: 36 (63.2) n (%)
  BOR SD: 18 (31.6) n (%)
  Months to first OR, median: 2.92 months
  Months to BOR, median: 5.5 months
[3]; [5]
  DCR (SD or better): (94.7, 85.4-98.9) %
  ORR (better than SD): (63.2, 49.3-75.6) %
[3]; Cohort 2
  BOR PD: 1 (14.3) n (%)
  BOR PR-L or better: 5 (71.4) n (%)
  BOR SD: 1 (14.3) n (%)
  Months to first OR, median: 3.02 months
  Months to BOR, median: 7.9 months
[3]; [6]
  DCR (SD or better): (85.7, 42.1-99.6) %
  ORR (better than SD): (71.4, 29.0-96.3) %
[3]; [7]
  BOR better than stable disease (ORR): 67.6%
  BOR of PR: 66.2%
  BOR of stable disease or better (DCR): 95.6%
[3]; Total
  BOR PD: 3.1 n (%) and 2 (3.1) n (%)
  BOR PR-L or better: 41 (64.1) n (%)
  BOR SD: 29.7 n (%) and 19 (29.7) n (%)
  Months to first OR, median: 2.96 months
  Months to BOR, median: 5.6 months
[3]; additional analysis
  Median DOR: not reached
  Median PFS: not reached
[3]; additional analysis, 67 patients
  18-month event-free PFS rate: 83.8%
[3]; all patients
  Chance of being alive after 24 months: 89.3%
  Estimated probability of responding for at least 12 months: 91.8%
  Median DOR: not reached
[3]; excluding eight patients ineligible for PR due to low baseline disease burden
  ORR: 73.2%
[3]; in vivo
  12-month event-free DOR rate: 95.0%
  Median time to first response (better than SD): 3.0 months
[3]; overall
  Median PFS: not reached
[3]; overall (clinical study report cut-off)
  PFS event-free rate at 18 months: 80.4%
[3]; patients with WM
  Estimated probability of responding for at least 12 months: 100%
  PFS event-free rate at 18 months: 100%
[3]; patients with WM, 11 patients
  BOR better than stable disease: 90.9%
  BOR of stable disease or better: 100%
  Very good partial response: 45.5%

From US11911386B2, “Methods of treating B-cell proliferative disorder” (BeiGene Switzerland GmbH, priority 2022, dated 2024)
